What was measured:
P. aeruginosa = format: cell-based, Pseudomonas aeruginosa
[1] = tested on: PA-I lectin/adhesin expression in P. aeruginosa PA27853 and PAO1
[2] = tested on: pyocyanin (PCN) production in P. aeruginosa; format: cell-based, Pseudomonas aeruginosa
[3] = molecular target: T1, receptor tyrosine phosphatase mu (RPTPμ) (Homo sapiens, UniProt P28827); experiment: RPTPμ tyrosine phosphatase activity assay; format: biochemical; conditions: treatment of HPMVEC
T1 construct: Treated or untreated HPAEC lysates and/or immunoprecipitated RPTPμ were analyzed for tyrosine phosphatase activity; host or cells: human pulmonary endothelial cells (HPMVEC, 'HPAEC')
T1 sequence (P28827 21-1452): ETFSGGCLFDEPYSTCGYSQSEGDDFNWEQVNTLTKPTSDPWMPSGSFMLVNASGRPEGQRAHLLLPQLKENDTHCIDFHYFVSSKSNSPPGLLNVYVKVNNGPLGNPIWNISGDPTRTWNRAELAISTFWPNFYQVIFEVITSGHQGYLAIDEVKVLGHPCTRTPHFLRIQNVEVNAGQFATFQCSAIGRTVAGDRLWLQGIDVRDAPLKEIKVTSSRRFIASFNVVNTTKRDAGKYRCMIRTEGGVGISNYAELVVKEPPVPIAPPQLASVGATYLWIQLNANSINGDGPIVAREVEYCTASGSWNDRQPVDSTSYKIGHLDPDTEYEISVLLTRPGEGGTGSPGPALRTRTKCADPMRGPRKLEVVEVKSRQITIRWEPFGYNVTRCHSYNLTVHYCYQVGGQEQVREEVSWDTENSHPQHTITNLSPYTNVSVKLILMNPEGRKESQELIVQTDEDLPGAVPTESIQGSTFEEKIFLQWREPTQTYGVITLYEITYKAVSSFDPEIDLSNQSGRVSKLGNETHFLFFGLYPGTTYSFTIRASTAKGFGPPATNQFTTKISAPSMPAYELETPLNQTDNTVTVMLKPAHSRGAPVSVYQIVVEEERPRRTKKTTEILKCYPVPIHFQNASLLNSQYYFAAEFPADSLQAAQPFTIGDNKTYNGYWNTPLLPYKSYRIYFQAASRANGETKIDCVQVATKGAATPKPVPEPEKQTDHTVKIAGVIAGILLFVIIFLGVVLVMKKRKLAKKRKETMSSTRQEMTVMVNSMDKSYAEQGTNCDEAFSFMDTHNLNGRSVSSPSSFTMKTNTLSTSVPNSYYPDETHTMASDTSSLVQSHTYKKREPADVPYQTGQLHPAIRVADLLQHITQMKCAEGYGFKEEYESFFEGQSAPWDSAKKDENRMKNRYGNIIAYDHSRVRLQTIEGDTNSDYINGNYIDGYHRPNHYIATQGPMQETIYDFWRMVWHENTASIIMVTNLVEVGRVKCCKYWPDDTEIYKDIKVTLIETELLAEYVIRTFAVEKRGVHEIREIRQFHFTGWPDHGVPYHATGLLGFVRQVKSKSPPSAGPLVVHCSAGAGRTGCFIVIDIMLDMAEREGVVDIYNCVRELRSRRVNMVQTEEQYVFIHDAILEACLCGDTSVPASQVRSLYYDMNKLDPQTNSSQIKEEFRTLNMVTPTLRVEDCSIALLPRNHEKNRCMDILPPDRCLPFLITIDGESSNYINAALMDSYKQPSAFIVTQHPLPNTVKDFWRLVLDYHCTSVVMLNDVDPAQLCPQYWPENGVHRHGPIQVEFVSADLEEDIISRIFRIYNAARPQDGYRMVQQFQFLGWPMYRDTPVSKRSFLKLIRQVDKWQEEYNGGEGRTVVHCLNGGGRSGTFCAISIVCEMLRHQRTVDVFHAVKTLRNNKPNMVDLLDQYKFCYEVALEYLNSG

[4] = cited from earlier work
[5] = tested on: total endothelial cell tyrosine phosphatase activity; experiment: Total cellular tyrosine phosphatase activity assay; format: cell-based, Human
S1P3 receptor = experiment: Tyrosine phosphorylation (transactivation) of the S1P3 receptor; format: cell-based, Human
[6] = tested on: Human pulmonary microvascular endothelial cell; format: cell-based
[7] = in vivo; cited from earlier work
[8] = tested on: PA-I lectin/adhesin expression in P. aeruginosa 27853/PLL-EGFP
[9] = methadone maintenance patients; mean dose 0.1 mg/kg intravenously; cited from earlier work
[10] = tested on: membrane protein fractions of P. aeruginosa; experiment: Binding of morphine to P. aeruginosa membrane protein; parameters: species or system Pseudomonas aeruginosa
P. aeruginosa PA27853 = format: in vivo, mice; conditions: slow release morphine pellets; daily 1×10^8 cfu/ml PA27853
[11] = intravenously applied; cited from earlier work

Which “effect on bacterial growth” value (P. aeruginosa) does the source give for CCCC(=O)N[C@H]1CCOC1=O [C4-HSL, C4-homoserine lactone] here?
Its value is “Neither compound had an effect on bacterial growth”.

And the PA-I expression [1]?
Its PA-I expression is “induced PA-I expression”.

And the “increase in PA-I expression” value [1]?
The value was ~16 fold.

What about the “PCN production in seven additional mvfR mutants” value [2] of the same molecule?
The value was “none of these mutants produced PCN”.

And the “PCN production in ΔGacA and ΔMvfR” value [2]?
Its value is “unable to restore PCN production”.

What about the “PCN production in ΔGacA/gacA” value [2] of the same molecule?
Its value is “decreased, albeit minimally”.

What about the “PCN production in ΔMvfR/mvfR” value [2] of the same molecule?
The value was “further increased the already elevated PCN production”.

What about the “PCN production versus cell density” value [2] of the same molecule?
The value was “shift in the production of PCN at lower cell densities”.

And the “PCN response of MvfR mutant 121-332” value [2]?
The value was “did not respond to U-50,488 or C4-HSL”.

And the “PCN response of MvfR mutants 1-292, 1-291, 1-283” value [2]?
The value was “did not respond to U-50,488 and C4-HSL”.

What about the “PCN response of MvfR mutants 1-299 and 1-293” value [2] of the same molecule?
The value was “responded to U-50,488 and C4-HSL with enhanced PCN production”.

What about the “dynamic tracking of PCN production in ΔMvfR/mvfR” value [2] of the same molecule?
The value was “demonstrated a shift in PCN production at lower cell densities”.

And the “dynamics of PCN production in ΔGacA/gacA” value [2]?
The value was “had no effect on the dynamics of PCN production”.

Which “RPTPμ tyrosine phosphatase activity” value [3] does the source give for C[N+]1(CC2CC2)CCC23c4c5ccc(O)c4OC2C(=O)CCC3(O)C1C5 (centres unmarked) [MNTX, N-methylnaltrexone] here?
The value was “enhanced RPTPμ tyrosine phosphatase activity”.

What about the “lipid solubility / polarity” value [4] of the same molecule?
The value was “greater polarity and lower lipid solubility”.

What about the “total endothelial cell tyrosine phosphatase activity” value [5] of the same molecule?
The value was “increased total endothelial cell tyrosine phosphatase activity”.

What about the “MNTX-mediated increase of total tyrosine phosphatase activity with RPTPμ silenced” value ([5]; siRNA) of the same molecule?
The value was “significantly attenuated”.

What about the “Src tyrosine phosphorylation of isolated S1P3 receptor, in vitro” value (S1P3 receptor; RPTPμ from MNTX-treated (1 hour) endothelial cells) of the same molecule?
The value was “blocked Src tyrosine phosphorylation of the S1P3 receptor”.

What about the “effect on agonist-induced S1P3 receptor transactivation” value (S1P3 receptor; pre-treatment) of the same molecule?
Its value is “completely blocked”.

What about the “MNTX protection from thrombin- and LPS-induced disruption with mOP-R silenced (siRNA)” value [6] of the same molecule?
Its value is “little effect”.

What about the “MNTX protection with RPTPμ silenced (siRNA)” value [6] of the same molecule?
The value was “inhibited the protective effects of MNTX”.

And the “MNTX protection with S1P3 receptor silenced (siRNA)” value [6]?
The value was “inhibited”.

And the “dose dependence of barrier protective effects” value [6]?
Its value is “Decreasing the dose of MNTX below 0.1 μM attenuated its barrier protective effects”.

What about the “effect on LPS-induced endothelial cell barrier disruption” value [6] of the same molecule?
Its value is “attenuated endothelial cell barrier disruption”.

And the “effect on MS- and DAMGO-induced endothelial cell barrier disruption” value [6]?
Its value is “blocked”.

And the “effect on S1P barrier enhancement” value [6]?
The value was “increased the sustained endothelial cell barrier-enhancing effect”.

And the “effect on ionomycin-induced endothelial cell barrier disruption” value [6]?
Its value is “but not from the Ca^2+ ionophore, ionomycin”.

What about the “effect on thrombin-induced endothelial cell barrier disruption” value [6] of the same molecule?
Its value is “attenuated endothelial cell barrier disruption”.

And the “crossing of the blood-brain barrier” value [7]?
Its value is “does not cross the blood-brain barrier”.

What about the “effect on morphine-induced PA-I lectin/adhesin expression” value [8] of the same molecule?
The value was “significantly attenuated”.

What about the mean plasma levels [9] of the same molecule?
Its mean plasma levels is 0.162 µg/mL.

For CN1CC[C@]23c4c5ccc(O)c4O[C@H]2[C@@H](O)C=C[C@H]3[C@H]1C5 [morphine], which “increase in PA-I expression” value [1] is on record?
The value was “four-fold”.

What about the “response to express PA-I” value [1] of the same molecule?
Its value is “induce a robust response”.

And the “effect of agonist alone on endothelial cell barrier function (TER)” value [6]?
The value was “induced endothelial cell barrier disruption in a dose-dependent manner”.

What about the “binding to membrane protein fractions” value [10] of the same molecule?
The value was “binds to membrane protein fractions”.

And the “mice developing severe sepsis” value (P. aeruginosa PA27853)?
The value was 4/4.

What about the mortality (P. aeruginosa PA27853) of the same molecule?
The mortality was “significant mortality”.

What about the “concentration accumulated at tissue sites such as the intestinal mucosa” value [11] of the same molecule?
Its value is ≤ 100 µM.
